Experiments:
NOMO1 [1] = test: cell viability relative to DMSO control; higher = less cytotoxic; details: RPMI 5 mM glucose + 10% FBS, 48 h
Method in brief: (§1)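 Viability was expressed as a per-plate percentage of DMSO wells, with cell-free wells as background. Leukemia cells (NOMO1 or SEM at 500 cells/well, P12-Ichikawa at 1000 cells/well) were adapted for at least four passages in each medium and seeded in 1536-well plates (5 μl). Library compounds in DMSO were pin-dosed over an 11-point threefold series from 47 μM to 0.79 nM, and CellTiter-Glo One luminescence was read after 48 h at 37°C.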

P12-Ichikawa [2] = test: as above; details: 48 h
Method in brief: as §1

SEM cells [3] = test: as above; details: 48 h
Method in brief: as §1

NOMO1 [4] = test: AUC of viability dose-response curve (% viability x log10 dose units); higher = less sensitive; details: 48 h
Method in brief: (§2)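 Leukemia cells adapted to each medium were seeded in 1536-well plates (500 or 1000 cells/well) and given library compounds in DMSO for 48 h at 37°C. The 11 threefold doses spanned 47 μM to 0.79 nM, and CellTiter-Glo One luminescence was normalised per plate to DMSO and cell-free wells before four-parameter log-logistic fitting on log10 dose. Area under the curve was integrated with the trapezoidal rule, scaling curves above full viability and removing curves that failed quality control.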

P12-Ichikawa [5] = test: as above; details: 48 h
Method in brief: as §2

SEM cells [6] = test: as above; details: 48 h
Method in brief: as §2

CC[C@@H]1[C@@H](C)O[C@@](O)([C@@H](C)[C@H](O)[C@H](C)[C@H]2OC(=O)/C=C/C=C/[C@H](C)[C@@H]([C@@H](C)[C@@H](O)[C@H](C)[C@@]3(O)C[C@@H](O[C@H]4C[C@H](O)[C@H](O)[C@H](C)O4)[C@H](CC)[C@@H](C)O3)OC(=O)/C=C/C=C/[C@@H]2C)C[C@H]1O[C@H]1C[C@H](O)[C@H](O)[C@H](C)O1
Details	AUC of viability dose-response curve	cell viability [%]
NOMO1 [1], 0.000781 µM	–	111
NOMO1 [1], 0.00234 µM	–	117
NOMO1 [1], 0.00702 µM	–	129
NOMO1 [1], 0.0211 µM	–	121
NOMO1 [1], 0.0632 µM	–	118
NOMO1 [1], 0.19 µM	–	132
NOMO1 [1], 0.569 µM	–	128
NOMO1 [1], 1.71 µM	–	121
NOMO1 [1], 5.12 µM	–	6.11
NOMO1 [1], 15.4 µM	–	17.5
NOMO1 [1], 46.1 µM	–	2.97
NOMO1 [4], HPLM + 10% dialyzed FBS	370	–
NOMO1 [4], RPMI 5 mM glucose + 10% FBS	366	–
NOMO1 [4], RPMI 5 mM glucose + 10% dialyzed FBS	372	–
P12-Ichikawa [5], HPLM + 10% dialyzed FBS	374	–
P12-Ichikawa [5], RPMI 5 mM glucose + 10% FBS	403	–
P12-Ichikawa [5], RPMI 5 mM glucose + 10% dialyzed FBS	380	–
SEM cells [6], HPLM + 10% dialyzed FBS	368	–
SEM cells [6], RPMI 5 mM glucose + 10% FBS	357	–
SEM cells [6], RPMI 5 mM glucose + 10% dialyzed FBS	351	–

cell viability [%]
Details	HPLM + 10% dialyzed FBS	RPMI 5 mM glucose + 10% FBS	RPMI 5 mM glucose + 10% dialyzed FBS
P12-Ichikawa [2], 0.000781 µM	–	–	117
P12-Ichikawa [2], 0.00234 µM	–	–	121
P12-Ichikawa [2], 0.00702 µM	–	–	115
P12-Ichikawa [2], 0.0211 µM	–	–	131
P12-Ichikawa [2], 0.0632 µM	–	–	126
P12-Ichikawa [2], 0.19 µM	–	–	127
P12-Ichikawa [2], 0.569 µM	–	–	142
P12-Ichikawa [2], 1.71 µM	–	–	139
P12-Ichikawa [2], 5.12 µM	–	–	7.66
P12-Ichikawa [2], 15.4 µM	–	–	60.8
P12-Ichikawa [2], 46.1 µM	–	–	2.82
SEM cells [3], 0.000781 µM	98.9	113	112
SEM cells [3], 0.00234 µM	114	106	121
SEM cells [3], 0.00702 µM	115	125	108
SEM cells [3], 0.0211 µM	104	101	118
SEM cells [3], 0.0632 µM	130	109	113
SEM cells [3], 0.19 µM	113	114	128
SEM cells [3], 0.569 µM	105	101	92.3
SEM cells [3], 1.71 µM	101	88.9	77.1
SEM cells [3], 5.12 µM	6.3	7.21	7.23
SEM cells [3], 15.4 µM	29.3	11.6	19
SEM cells [3], 46.1 µM	5.37	4.01	4.96

Clc1cccc(-n2nnnc2NCc2ccccc2Oc2ccccn2)c1Cl
cell viability [%]
Details	P12-Ichikawa [2]	SEM cells [3]
HPLM + 10% dialyzed FBS, 0.000781 µM	120	102
HPLM + 10% dialyzed FBS, 0.00234 µM	120	123
HPLM + 10% dialyzed FBS, 0.00702 µM	116	124
HPLM + 10% dialyzed FBS, 0.0211 µM	124	133
HPLM + 10% dialyzed FBS, 0.0632 µM	123	123
HPLM + 10% dialyzed FBS, 0.19 µM	136	131
HPLM + 10% dialyzed FBS, 0.569 µM	133	128
HPLM + 10% dialyzed FBS, 1.71 µM	133	125
HPLM + 10% dialyzed FBS, 5.12 µM	133	127
HPLM + 10% dialyzed FBS, 15.4 µM	131	139
HPLM + 10% dialyzed FBS, 46.1 µM	127	138
RPMI 5 mM glucose + 10% dialyzed FBS, 0.000781 µM	–	116
RPMI 5 mM glucose + 10% dialyzed FBS, 0.00234 µM	–	149
RPMI 5 mM glucose + 10% dialyzed FBS, 0.00702 µM	–	125
RPMI 5 mM glucose + 10% dialyzed FBS, 0.0211 µM	–	140
RPMI 5 mM glucose + 10% dialyzed FBS, 0.0632 µM	–	113
RPMI 5 mM glucose + 10% dialyzed FBS, 0.19 µM	–	126
RPMI 5 mM glucose + 10% dialyzed FBS, 0.569 µM	–	149
RPMI 5 mM glucose + 10% dialyzed FBS, 1.71 µM	–	129
RPMI 5 mM glucose + 10% dialyzed FBS, 5.12 µM	–	148
RPMI 5 mM glucose + 10% dialyzed FBS, 15.4 µM	–	147
RPMI 5 mM glucose + 10% dialyzed FBS, 46.1 µM	–	119

AUC of viability dose-response curve
Details	NOMO1 [4]	P12-Ichikawa [5]	SEM cells [6]
HPLM + 10% dialyzed FBS	472	458	439
RPMI 5 mM glucose + 10% FBS	472	467	470
RPMI 5 mM glucose + 10% dialyzed FBS	470	441	474

C[C@]1(CO)CN(c2cc(C(=O)Nc3ccc4c(c3)-c3c(c(C(N)=O)nn3-c3ccc(F)cc3)CC4)c(Cl)cn2)C[C@@]1(C)CO
AUC of viability dose-response curve
Details	NOMO1 [4]	P12-Ichikawa [5]	SEM cells [6]
HPLM + 10% dialyzed FBS	446	418	421
RPMI 5 mM glucose + 10% FBS	457	423	317
RPMI 5 mM glucose + 10% dialyzed FBS	445	422	422

CC(C)(O)[C@H]1CC[C@@](C)([C@H]2[C@@H](O)C[C@@]3(C)[C@@H]4C[C@H](O[C@@H]5O[C@H](CO)[C@@H](O)[C@H](O)[C@H]5O)[C@H]5C(C)(C)[C@@H](O[C@@H]6OC[C@@H](O)[C@H](O)[C@H]6O)CC[C@@]56C[C@@]46CC[C@]23C)O1
cell viability [%], SEM cells [3]
Details	HPLM + 10% dialyzed FBS	RPMI 5 mM glucose + 10% FBS
0.000781 µM	118	119
0.00234 µM	118	123
0.00702 µM	121	133
0.0211 µM	124	120
0.0632 µM	128	124
0.19 µM	126	123
0.569 µM	129	130
1.71 µM	117	121
5.12 µM	89.2	108
15.4 µM	109	105
46.1 µM	106	128

AUC of viability dose-response curve
Details	NOMO1 [4]	P12-Ichikawa [5]	SEM cells [6]
HPLM + 10% dialyzed FBS	464	456	454
RPMI 5 mM glucose + 10% FBS	446	451	465
RPMI 5 mM glucose + 10% dialyzed FBS	449	450	466

CC(C)(O)CCc1ccc(OCc2cc(-c3cccc(OC(F)F)c3)c3ncccc3c2)cc1
SEM cells [3], HPLM + 10% dialyzed FBS
Details	cell viability [%]
0.000781 µM	96
0.00234 µM	98.7
0.00702 µM	108
0.0211 µM	118
0.0632 µM	113
0.19 µM	126
0.569 µM	115
1.71 µM	127
5.12 µM	137
15.4 µM	119
46.1 µM	134

AUC of viability dose-response curve
Details	NOMO1 [4]	P12-Ichikawa [5]	SEM cells [6]
HPLM + 10% dialyzed FBS	468	466	435
RPMI 5 mM glucose + 10% FBS	457	457	445
RPMI 5 mM glucose + 10% dialyzed FBS	460	456	469

O=C(N[C@@H](c1ccccc1)[C@@H]1CCCCN1)c1cccc(C(F)(F)F)c1Cl
AUC of viability dose-response curve
Details	NOMO1 [4]	P12-Ichikawa [5]	SEM cells [6]
HPLM + 10% dialyzed FBS	444	465	461
RPMI 5 mM glucose + 10% FBS	462	465	450
RPMI 5 mM glucose + 10% dialyzed FBS	408	464	407

CC(C)OC(=O)C(C)(C)Oc1ccc(C(=O)c2ccc(Cl)cc2)cc1
AUC of viability dose-response curve
Details	NOMO1 [4]	P12-Ichikawa [5]	SEM cells [6]
HPLM + 10% dialyzed FBS	469	447	446
RPMI 5 mM glucose + 10% FBS	459	446	423
RPMI 5 mM glucose + 10% dialyzed FBS	466	464	442

CC1=CC=C2N=C(NC(=O)CS\C3=N\C4=C(\SCC4)C(=O)N3C5=CC=CC=C5)SC2=C1
AUC of viability dose-response curve
Details	HPLM + 10% dialyzed FBS	RPMI 5 mM glucose + 10% FBS	RPMI 5 mM glucose + 10% dialyzed FBS
P12-Ichikawa [5]	444	430	435
SEM cells [6]	424	421	446

O=C(CCCCCCNC(=O)c1cnc(N(c2ccccc2)c2ccccc2)nc1)NO
AUC of viability dose-response curve
Details	NOMO1 [4]	P12-Ichikawa [5]	SEM cells [6]
HPLM + 10% dialyzed FBS	417	393	399
RPMI 5 mM glucose + 10% FBS	422	386	390
RPMI 5 mM glucose + 10% dialyzed FBS	426	382	392

C=C1/C(=C/C=C2\CCCC3(C)[C@@H]([C@H](C)/C=C/C=C/C(O)(CC)CC)CC[C@@H]23)C[C@@H](O)C[C@@H]1O (stereo partly drawn)
AUC of viability dose-response curve
Details	NOMO1 [4]	P12-Ichikawa [5]	SEM cells [6]
HPLM + 10% dialyzed FBS	437	463	463
RPMI 5 mM glucose + 10% FBS	422	451	460
RPMI 5 mM glucose + 10% dialyzed FBS	445	455	448

Source: the supplement of paper PMC11451515
